According to BindingDB's records for doi:10.1021/jm0702579 (National Cancer Institute-Frederick, 2007):
pKi: −log10 of the molar value.

Test: Ratio of Ki for mouse wild type C1b domain of PKCdelta to Ki for mouse PKCdelta C1b Q27E mutant

## CCCC(=O)O[C@@H]1[C@@H](C)[C@@]2(O)[C@@H](C=C(CO)C[C@]3(O)C(=O)C(C)=C[C@@H]23)[C@@H]2C(C)(C)[C@]12OC(=O)CCC [(1aR,1bS,4aR,7aS,7bS,8R,9R,9aS)-4a,7b-dihydroxy-3-(hydroxymethyl)-1,1,6,8-tetramethyl-5-oxo-1,1a,1b,4,4a,5,7a,7b,8,9-decahydro-9aH-cyclopropa[3,4]benzo[1,2-e]azulene-9,9a-diyl dibutanoate]
  pKi: 7.72
